Entries after “also recorded” stand apart in the source; their conditions may differ.
What was measured:
[1] = system: Saccharomyces cerevisiae MYH500; test: Growth assays for antifungal compounds combined with fluoride: S. cerevisiae; assay type: cell-based; conditions: for fungal growth inhibition compared with NaF: 30 mM and 80 mM, with amphotericin B; for effect of ion on MIC of amphotericin B: tested at 30 mM and 80 mM with amphotericin B; for inhibition of S. cereviciae growth: under the assay conditions, data not shown
Procedure: (§1) Model Organism: Saccharomyces cerevisiae MYH500 [Genotype: his3-del200, leu2-3, ura3-52, lys2-801, trp1-1, gal2]
Methods: • 1. Pick an isolated yeast colony (S. cerevisiae MYH500) from a plate, inoculate into 2 mL YPD medium in a 14 mL snap-cap tube and grow for 12 h at 30° C. on a shaker (200 rpm). The O.D.600 of the culture should be approximately 1.30. • 2. Two growth methods are used. (i) If culturing cells in 14 mL snap-cap tubes, dilute the cells 1:3 (1 vol. of 12 hr cell culture plus 2 vol. medium). Then, inoculate 2 mL YPD medium with 20 μL of 1/3 diluted cells (1% inoculation). […] (ii) For growth curve measurements, culture cells in a honeycomb 2 plate (Oy Growth Curves Ab Ltd) with 400 μL of medium inoculated with 8 μL of 1:6 diluted cells (1% inoculation). […] Supplement a fungicide and/or fluoride in the culture as necessary for each experiment.

[2] = system: Neurospora crassa (FGSC #2225); test: Growth assays for antifungal compounds combined with fluoride: N. crassa; assay type: cell-based
Procedure: Model Organism: Neurospora crassa (FGSC #2225) [Genotype: N. crassa, A]
Methods: • 1. Recover N. crassa on a slant with minimal medium at 25° C. for 5-6 days to grow spores. • 2. Re-suspend two loops of spores in 2 mL minimal medium. • 3. Inoculate 20 μL into 2 mL minimal medium in an autoclaved 16×150 mm glass tube with cap. • 4. Supplement a fungicide and/or fluoride in the culture as necessary for each experiment. • 5. Grow for 24 h at 25° C. on a shaker (200 rpm).

[3] = system: Candida albicans (SC5314; ATCC number MYA-2876); test: Growth assays for amphotericin B combined with fluoride: C. albicans; assay type: cell-based; conditions: for effect on C. albicans growth: liquid medium, 48 hours
Procedure: Organism: Candida albicans (SC5314; ATCC number MYA-2876)
Methods: • 1. Pick an isolated C. albicans yeast colony from a plate, inoculate into 2 mL YPD medium in a 17 mL screw-cap tube and grow for 12 h at 28° C. on a shaker (200 rpm). The O.D.600 of the culture should be approximately 3.6. • 2. Two growth methods were used. (i) If culturing cells in 17 ml screw-cap tubes, dilute the cells 1:5 (1 volume of 12 hr cell culture plus 4 volumes of medium). Inoculate 2 mL YPD medium with 20 μL of 1-to-5 diluted cells (1% inoculation). Incubate at 28° C. and 200 rpm for 9 hours before measuring O.D. (ii) For growth curve measurements, culture cells in a honeycomb 2 plate with 400 μL of medium inoculated with 8 μL of 1-to-10 diluted cells (1% inoculation). Culture for 48 hrs at 28° C., measuring OD600 every 15 m without shaking in the Bioscreen C MBR instrument. • 3. Supplement a fungicide and/or fluoride in the culture as necessary for each experiment.

[4] = system: Saccharomyces cerevisiae MYH500; test: Fungicidal fluoride assay (colony counts after culture in fluoride); assay type: cell-based; conditions: 300 mM fluoride in liquid medium, 160 minute incubation
Procedure: CrcB proteins are most likely fluoride transporters. The fungal expression of crcB and the subsequent ejection of fluorides from cells is a major mechanism for how these organisms overcome fluoride toxicity. To assess whether fluoride simply halts fungal growth (fungistatic) or kills fungal cells (fungicidal), a culture of Saccharomyces cereviciae and added 300 mM fluoride to the medium was prepared. Samples of this mixture were taken at various times, plated, and the number of resulting colonies were recorded (FIG. 1). […] Therefore, compounds that facilitate the uptake and/or retention of fluoride, or otherwise inhibit the fluoride toxicity mitigation responses of fungi, also function as fungicidal compounds when used in combination with fluoride.
as §1
Medium: YPD (liquid and solid)
• 1. Pick an isolated yeast colony (S. cerevisiae MYH500) from a plate, inoculate into 2 mL YPD medium (liquid) in a 14 mL snap-cap tube and grow for 12 h at 30° C. on a shaker (200 rpm). • 2. Dilute 20 μL of the culture into 2 mL medium and mix. Remove a 20 μL aliquot and transfer to 2 mL YPD medium with 300 mM NaF. Grow at 30° C. on a shaker (200 rpm) for 10, 20, 40, 80, 160 and 240 m. • 3. At each time point, transfer 100 μL culture to an agar plate and distribute. • 4. […]

[5] = system: Escherichia coli crcB knock-out; conditions: E. coli crcB knock-out compared to wild-type; cited from earlier work
[6] = molecular target: T1, crcB fluoride transporter (Escherichia coli, UniProt P37002); test: Fluoride riboswitch beta-galactosidase reporter assay in E. coli cells with imipramine; assay type: cell-based
T1 construct: endogenous in cells; host or cells: E. coli cells carrying a fluoride riboswitch beta-galactosidase reporter construct
T1 sequence (P37002 whole entry): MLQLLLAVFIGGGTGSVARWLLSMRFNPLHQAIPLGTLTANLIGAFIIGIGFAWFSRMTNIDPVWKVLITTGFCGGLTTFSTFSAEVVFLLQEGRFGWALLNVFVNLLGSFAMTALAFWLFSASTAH
Source text: Fluoride riboswitch fused to a beta-galactosidase reporter gene. Construct is present in E. coli cells and cells are exposed to concentrations of sodium fluoride and imipramine (x-axis) as noted in FIG. 10.

[7] = system: Saccharomyces cerevisiae MYH500; test: Growth assays for Novexatin combined with fluoride: S. cerevisiae; assay type: cell-based; conditions: S. cereviciae; for improvement in MIC at about 24 hours: 30 mM NaF, approximately 24 hours (26.25 h)
Procedure: as §1
Methods: • 1. Pick an isolated yeast colony (S. cerevisiae MYH500) from a plate, inoculate into 2 mL YPD medium in a 14 mL snap-cap tube and grow for 12 h at 30° C. on a shaker (200 rpm). The O.D.600 of the culture should be approximately 1.30. • 2. For growth curve measurements, culture cells in a honeycomb 2 plate with 80 μL of medium (final volume) inoculated with 2 μL of 1:12 diluted cells. Culture for 48 hrs at 30° C., measuring O.D.600 every 15 m without shaking in the Bioscreen C MBR instrument. • 3. Supplement a fungicide and/or fluoride in the culture as necessary for each experiment.

## [Cl-].[K+] [KCl]
[1]
  fungal growth inhibition compared with NaF: consistently less effective than NaF
  effect of ion on MIC of amphotericin B: improve the MIC values of amphotericin B

## [Cl-].[Na+] [NaCl]
[1]
  fungal growth inhibition compared with NaF: consistently less effective than NaF
  effect of ion on MIC of amphotericin B: improve the MIC values of amphotericin B

## C[C@@H]1[C@H](O)[C@@H](C)/C=C/C=C/C=C/C=C/C=C/C=C/C=C/[C@H](O[C@@H]2O[C@H](C)[C@@H](O)[C@H](N)[C@@H]2O)C[C@@H]2O[C@](O)(C[C@@H](O)C[C@@H](O)[C@H](O)CC[C@@H](O)C[C@@H](O)CC(=O)O[C@H]1C)C[C@H](O)[C@H]2C(=O)O [amphotericin B]
[1]; 10 nM amphotericin B in combination with a range of fluoride concentrations
  effect of combination on growth inhibition: dramatic increase in the growth-inhibition effects of fluoride
[1]; 10 nM amphotericin B used alone
  effect on cell growth: almost no effect on cell growth
[1]; 20 nM amphotericin B alone
  growth inhibition effect on S. cereviciae: almost no growth inhibition effect
[1]; 30 mM fluoride added to liquid medium
  improvement in MIC for S. cereviciae: approximately 10 fold
[1]; 80 mM fluoride
  improvement in MIC for S. cereviciae: ~30 fold
[1]; absence of fluoride, over 48 hours
  amphotericin B concentration required to almost completely inhibit growth: 300 nM
[1]; amphotericin B 30 to 70 nM, absence of fluoride
  effect on S. cereviciae growth: only marginally delay near full growth
[2]; amphotericin B tested independently, 24 h
  amphotericin B concentration required to prevent N. crassa growth: greater than 300 nM
[2]; combined with 10 mM fluoride
  reduction of MIC for N. crassa: at least 4 fold
[2]; combined with 30 mM fluoride
  reduction of MIC for N. crassa: ≥ 10 fold
[3]; medium supplemented with 30 mM fluoride
  MIC for C. albicans: ~0.05 µM

## [F-].[Na+] [fluoride, Sodium fluoride]
[4]
  loss of cell viability (colonies after plating): near complete killing
[1]; 60 mM fluoride combined with 20 nM amphotericin B
  effect on fungal growth: complete inhibition of growth
[1]; 60 mM fluoride tested alone
  effect on fungal growth: only a modest effect on fungal growth
[1]; 80 mM fluoride alone
  lengthening of time to near full culture growth: two fold
[1]; fluoride alone, 30 mM in liquid medium
  effect on S. cereviciae growth: only marginally affects
[1]; fluoride alone, 48-hour culture
  fluoride concentration required to completely inhibit fungal growth: > 100 mM
[2]; fluoride tested independently, 24 h
  fluoride concentration required to completely prevent N. crassa growth: greater than 80 mM
[3]; 100 mM fluoride alone
  effect on C. albicans growth: only a modest inhibitory effect
[3]; 300 mM fluoride alone
  effect on C. albicans growth: completely prevented growth
[5]
  increase in sensitivity to fluoride of crcB knock-out strain: approximately 200 fold

## CN(C)CCCN1c2ccccc2CCc2ccccc21 [imipramine, Imipramine]
[6]; 330 μM imipramine, E. coli cells with riboswitch-reporter construct, sodium fluoride
  reporter gene expression (fluorescence, substrate 4-MUG): increased expression of the reporter gene
[6]; E. coli cells lacking the gene for fluoride transporter protein CrcB
  reporter gene expression with imipramine in cells lacking CrcB: substantially reduced

## CN(C/C=C/C#CC(C)(C)C)Cc1cccc2ccccc12 [terbinafine]
[1]
  inhibition of S. cereviciae growth: did not significantly inhibit S. cereviciae growth

## Cc1cccc(N(C)C(=S)Oc2ccc3ccccc3c2)c1 [tolnaftate]
[1]
  inhibition of S. cereviciae growth: did not significantly inhibit S. cereviciae growth

## aculeacin A
[1]; 30 mM fluoride
  effect of fluoride on inhibition of S. cereviciae growth by the antifungal: not affected at all; also recorded: lack of an effect

## cyclic hepta-arginine [NOVEXATIN®]
[7]
  improvement in MIC at about 24 hours: A similar result
[7]; listed as Novexatin®
  improvement in MIC at about 24 hours: improvement in MIC
[7]; combined with 30 mM fluoride, 48 h
  improvement in MIC: greater than 3 fold
[7]; over 48 hours, no fluoride
  concentration needed to almost completely prevent fungal growth: 3 mM

From patent US9744191B2, “Antimicrobial compositions and methods” (Yale University, priority 2012, dated 2017)
